Measured values: patent US20240174625A1, “COMPOSITIONS AND METHODS FOR TREATING TAUOPATHIES” (The Regents of the University of California, priority 2021, published 2024)

How the values were obtained:
[1] = test system: superoxide dismutase 1 (SOD1); assay: SOD1 protein level in human primary cortical neurons; type: cell-based; details: 50 μM, 48 hrs
Experimental: (§1) FIG. 11. Potential applications of NPEPPS enhancer JMM series on other neurodegenerative diseases. JMM001 (Cp 1) at 50 μM reduces protein levels of huntingtin (htt), SOD1, ataxin, and alpha-synuclein in human primary cortical neurons. Neurons were treated with 50 μM JMM001 or 10 uM bestatin for 48 hrs. N=3-4±SEM.

[2] = molecular target: T1, NPEPPS (Homo sapiens, UniProt P55786); assay: Cellular thermal shift assay (CETSA) in HEK293T cell lysates; type: binding; details: concentration-dependent
T1 construct: endogenous in cells; host or cells: HEK293T
T1 sequence (P55786 whole entry): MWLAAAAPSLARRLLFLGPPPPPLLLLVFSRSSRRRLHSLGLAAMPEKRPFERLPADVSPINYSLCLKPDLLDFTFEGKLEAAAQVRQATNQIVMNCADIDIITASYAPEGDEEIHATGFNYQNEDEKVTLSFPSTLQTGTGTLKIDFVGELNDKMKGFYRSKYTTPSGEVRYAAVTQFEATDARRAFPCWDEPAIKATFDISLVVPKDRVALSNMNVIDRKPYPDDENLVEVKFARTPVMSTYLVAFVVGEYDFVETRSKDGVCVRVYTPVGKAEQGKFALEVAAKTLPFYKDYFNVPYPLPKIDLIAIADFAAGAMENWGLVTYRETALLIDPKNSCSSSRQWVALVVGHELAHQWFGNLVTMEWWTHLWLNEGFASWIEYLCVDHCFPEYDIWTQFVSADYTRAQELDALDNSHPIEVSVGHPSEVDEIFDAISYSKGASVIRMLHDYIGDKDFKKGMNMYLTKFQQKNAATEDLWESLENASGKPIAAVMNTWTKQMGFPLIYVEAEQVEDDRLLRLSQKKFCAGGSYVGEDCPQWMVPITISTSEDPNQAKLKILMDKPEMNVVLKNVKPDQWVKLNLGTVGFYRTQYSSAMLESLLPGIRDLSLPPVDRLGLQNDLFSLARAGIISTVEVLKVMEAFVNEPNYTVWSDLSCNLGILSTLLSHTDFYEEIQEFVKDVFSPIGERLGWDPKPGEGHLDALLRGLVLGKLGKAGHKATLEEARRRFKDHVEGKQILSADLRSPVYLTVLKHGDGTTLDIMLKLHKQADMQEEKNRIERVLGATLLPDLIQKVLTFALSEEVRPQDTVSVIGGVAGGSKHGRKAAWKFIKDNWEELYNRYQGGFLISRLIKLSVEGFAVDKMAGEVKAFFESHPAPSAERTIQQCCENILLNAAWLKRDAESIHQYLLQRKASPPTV
Experimental: Cellular thermal shift analysis (CETSA) was conducted at Pelago Bioscience. Briefly, HEK293T cells were harvested and suspended in an experimental Buffer B (20 mM HEPES, 138 mM NaCl, 5 mM KCl, 2 mM CaCl2), 1 mM MgCl2, pH7.4) at a density of 4×10^7 cells/ml. Cell suspension was lysed by three rounds of freeze-thaw cycles with liquid nitrogen and clarified at 20,000 g for 20 min at 4° C. Compounds diluted to 2× final concentration (final solution contains 1% DMSO) in Buffer B were added to equal volume of clarified cell lysates and incubated at 37° C. for 30 min with continuous rotation. 1% DMSO was used as a negative control in parallel. The treated cell lysates were then divided into 60 μl aliquots and subjected to a 12-step heat challenge between 50° C. and 62° C. for 3 min. For the concentration-dependent analyses, clarified cell lysates in 30 aliquots were mixed with an equal volume of compounds or DMSO in Buffer B at 2× intended compound concentration and incubated at 37° C. for 30 min with continuous rotation. JMM001-treated lysates were then heat challenged at 59° C. as determined from its corresponding cellular thermal shift curve. All treated lysates were immediately centrifugated at 20,000 g for 20 min at 4° C. prior to immunoblotting analysis. […] The obtained intensities were plotted as the luminescence count normalized to a relevant temperature or control count as specified.

[3] = test system: α-synuclein; assay: alpha-synuclein protein level in human primary cortical neurons; type: cell-based; details: 50 μM, 48 hrs
Experimental: as §1

[4] = test system: rhodopsin::EGFP-MAPT transgenic zebrafish expressing the Tau^P301L mutation; assay: Photoreceptor neurodegeneration in a zebrafish model of tauopathy; type: in vivo
Experimental: The rhodopsin::EGFP-MAPT transgenic zebrafish expressing the Tau^P301L mutation is generated and maintained as previously described^22,23. Tau^P301L expression is restricted to the rods of the retina. Photoreceptor image and quantification in central retina sections in the region of the optic nerve head is performed as previously described^2223.

[5] = test system: Huntingtin; assay: Huntingtin protein level in human primary cortical neurons; type: cell-based; details: 50 μM, 48 hrs
Experimental: as §1

[6] = test system: ataxin-3; assay: Ataxin-3 protein level in human primary cortical neurons; type: cell-based; details: 50 μM, 48 hrs
Experimental: as §1

[7] = test system: HEK293T cells; assay: Cell viability assay (CellTiter Glo); type: cell-based, human; details: for IC50: Homo sapiens, HEK-293T, log10 transformed, IC50 = concentration that suppresses 50% cell viability, HEK293T cells; for Therapeutic index: ratio of IC50 (cell viability) over EC50 (NPEPPS activity)
Outline: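 HEK293T cells seeded at 16,500 per well on poly-L-ornithine in minimal medium with amino acids, vitamins and AlbuMax in HBS, with compound added as a 20-step 2-fold dilution. CellTiter Glo luminescence was read after 24 h. Viability is the signal normalized to DMSO control.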

[8] = molecular target: Recombinant human (rh) NPEPPS protein (Homo sapiens, UniProt P55786); assay: Cell-free thermal shift (protein stability) assay; type: binding; details: concentration-dependent
Sequence of Recombinant human (rh) NPEPPS protein (P55786 whole entry): as above
Experimental: Cell-free thermal shift assay: Recombinant human (rh) NPEPPS protein was diluted in Buffer A (20 mM Tris, 137 mM NaCl, pH 7.5) to a final concentration of 1.25 μM and added to a pre-chilled 384-well microplate (Biorad HSR4801). JMM001, dimethyl sulfoxide (DMSO, Sigma D2650), or NPEPPS inhibitor puromycin dihydrochloride (Sigma P8833) in 1 μl was then added to each well, mixed with gentle aspiration, and incubated with rhNPEPPS for 3 min on ice. SYPRO Orange (Invitrogen S6651) was diluted to 200× concentration in Buffer A and added to each well achieving a final dilution of 1:20, mixed with gentle aspiration. The final assay volume was 20 μl. The plate was sealed followed by a brief spin-down. The samples were analyzed on a Real-time PCR system (Roche LightCycler 480) from 20° C. to 85° C. at a continuous acquisition rate of 5 measurements/° C. and measured at excitation/emission wavelengths of 533/580 nm. Melting temperature is calculated as the lowest derivative of the fluorescence signal as a function of the temperature as previously described^7,18.

Compound	protein level of SOD1 [1]	thermal shift of NPEPPS [2]	protein level of α-synuclein [3]	photoreceptor degeneration ([4]; 0.01 and 0.03 μM, compared to DMSO control)	retinal photoreceptor degeneration ([4]; 0.01 and 0.05 μM)	protein level of Huntingtin [5]	protein level of ataxin-3 [6]	IC50 [7] [µM]	Therapeutic index [7]	melting temperature of rhNPEPPS [8]
COc1ccc(CNc2nsc3ccccc23)cc1OC [JMM001]	reduces	significant thermal shift	reduces	rescue	rescued	reduces	reduces	64.6	4.05	significant, concentration-dependent increases in melting temperature
CN(Cc1ccc(C(F)(F)F)cc1)c1nsc2ccccc12 [JMM067]								126	15.54	
c1ccc(COc2ccc(CNc3nsc4ccc(OCc5ccccc5)cc34)cc2)cc1 [JMM083]								1550	2189.48	
c1ccc2c(c1)-c1ccccc1C2Nc1nsc2ccccc12 [JMM052]								1230	72.24	
c1ccc2c(CNc3nsc4ccccc34)cccc2c1 [JMM013]								407	27.36	
